Reference: patent US20240140991A1, “ANTIBIOTIC NATURAL PRODUCT ANALOGUES” (THE QUEEN'S UNIVERSITY OF BELFAST, priority 2021, published 2024)
Values after ≈ are worked out from the molar mass of the structure shown. Positions of bridges follow the written chain, without caps; N, C: chain ends. Non-standard residues stand in square brackets, D forms with d. Residues, ends and D or L forms follow the SMILES beside them. ξ: configuration not given here. *: point of attachment. Palmitoyl = CCCCCCCCCCCCCCCC(=O)*; Hexanoyl(4ξ-Me) = CCC(C)CCC(=O)*; Lauroyl = CCCCCCCCCCCC(=O)*; dOrn = NCCC[C@@H](N)C(=O)O; Octanoyl = CCCCCCCC(=O)*; Orn = NCCC[C@H](N)C(=O)O; Dap = NC[C@H](N)C(=O)O; Alloc = C=CCOC(=O)*; Butyryl = CCCC(=O)*

Experiments:
E. coli = format: cell-based
Procedure: (§1) Minimum inhibitory concentration (MIC) was determined by broth microdilution according to CLSI guidelines. Blood agar plates were inoculated with glycerol stocks of Escherichia coli ATCC 25922, E. coli ATCC 25922 MCR-1, E. coli MCR-1 (clinical isolate from Utrecht Medical Center, NL), E. coli EQAS MCR-2 (clinical isolate from Wageningen University and Research, NL), Kiebsielia pneumoniae ATCC 11228, K. pneumoniae ATCC 13883, K. pneumonia 2048 (clinical isolate from Vrije Universiteit Amsterdam Medical Center, NL), K. pneumonia JS-123 (clinical isolate from Utrecht Medical Center, NL), Acinetobacter baumannii ATCC 17961, A. baumannil ATCC 17978, A. baumannii 2018-006 (clinical isolate from Rijksinstituut voor Volksgezondheid en Milieu, NL), A. baumannii MDR (clinical isolate from Vrije Universiteit Amsterdam Medical Center, NL), Pseudomonas aeruginosa ATCC 27853, P. aeruginosa PAO1, P. aeruginosa NRZ-03961 (Reference strain from Das Nationale Referenzzentrum für gramnegative Krankenhauserreger, DE), P. aeruginosa M-120 (clinical isolate from Leiden University Medical Center, NL) and Staphylococcus aureus USA300 (clinical isolate from Texas Children's Hospitalm, USA). E. coli 25922 MCR1 was grown on LB agar supplemented with kanamycin. The inoculated agar plates were then incubated for 16 hours at 37° C. Individually grown colonies were subsequently used to inoculate 3 mL aliquots of TSB that were then incubated at 37° C. with shaking at 220 rpm. In parallel, the compounds to be assessed were serially diluted with Mueller-Hinton broth (MHB) in polypropylene 96-well plates (50 μL in each well). Once the OD600 of the bacterial suspensions reached 0.5, the bacteria were diluted with MHB (final concentration 2×10^5 CFU mL^−1) and added to the microplates containing the test compounds (50 μL to each well, final volume: 100 μL). The well-plates were sealed with an adhesive membrane and after 16 hours of incubation at 37° C. with shaking at 220 rpm the wells were visually inspected for bacterial growth. MIC values were defined as the lowest concentration of the compound that prevented visible growth of bacteria.
MIC values were determined for the lipid analogues of brevicidine.
MIC values were determined for the position 9 analogues of linear brevicidine.

E. Coli NCTC 12241 = format: cell-based
Procedure: as §1
were tested for inhibition of E. Coli NCTC 12241.

[1] = test system: Escherichia coli ATCC 25922; format: cell-based; settings: ATCC 25922
Procedure, shortened: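 Broth microdilution in MHB per CLSI; inoculum 2×10^5 CFU mL^−1 from log-phase TSB cultures at OD600 0.5. Plates incubated 16 hours at 37° C with shaking at 220 rpm. MIC is the lowest concentration preventing visible growth.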

K. pneumoniae ATCC 11228 = format: cell-based, Klebsiella pneumoniae; settings: ATCC 11228
Procedure: as §1

A. baumannii ATCC 17978 = format: cell-based, Acinetobacter baumannii; settings: ATCC 17978
Procedure: as §1

P. aeruginosa PAO1 = format: cell-based, Pseudomonas aeruginosa; settings: PAO1
Procedure: as §1

| SMILES | E. coli MIC (E. coli) | E. coli MIC (E. Coli NCTC 12241) | Minimum inhibitory concentration (MIC) [1] | Minimum inhibitory concentration (MIC) (K. pneumoniae ATCC 11228) | Minimum inhibitory concentration (MIC) (A. baumannii ATCC 17978) | Minimum inhibitory concentration (MIC) (P. aeruginosa PAO1) |
| --- | --- | --- | --- | --- | --- | --- |
| CCC(C)CCC(=O)N[C@H](CC(N)=O)C(=O)N[C@H](Cc1ccc(O)cc1)C(=O)N[C@H](Cc1c[nH]c2ccccc12)C(=O)N[C@H](CCCN)C(=O)N[C@@H](CCCN)C(=O)NCC(=O)N[C@H](CCCN)C(=O)N[C@@H](Cc1c[nH]c2ccccc12)C(=O)N[C@@H](CN)C(=O)N[C@H](C(=O)NCC(N)=O)[C@@H](C)CC (stereo partly shown) [Und(9-Dap)-NH2] ({Hexanoyl(4ξ-Me)}-[dN][dY][dW][dOrn][Orn]G[dOrn]W[Dap]IG-NH2) | 3.1 µg/mL | 3.1 µg/mL | – | – | – | – |
| CCC(C)CCC(=O)N[C@H](CC(N)=O)C(=O)N[C@H](Cc1ccc(O)cc1)C(=O)N[C@H](Cc1c[nH]c2ccccc12)C(=O)N[C@H](CCCN)C(=O)N[C@@H](CCCN)C(=O)NCC(=O)N[C@H](CCCN)C(=O)N[C@@H](Cc1c[nH]c2ccccc12)C(=O)N[C@@H](C)C(=O)N[C@H](C(=O)NCC(=O)O)[C@@H](C)CC (stereo partly shown) [MeHex- Ala OH] ({Hexanoyl(4ξ-Me)}-[dN][dY][dW][dOrn][Orn]G[dOrn]WAIG-OH) | – | 50 µg/mL | – | – | – | – |
| C=CCOC(=O)NC[C@H](NC(=O)[C@H](Cc1c[nH]c2ccccc12)NC(=O)[C@@H](CCCN)NC(=O)CNC(=O)[C@H](CCCN)NC(=O)[C@@H](CCCN)NC(=O)[C@@H](Cc1c[nH]c2ccccc12)NC(=O)[C@@H](Cc1ccc(O)cc1)NC(=O)[C@@H](CC(N)=O)NC(=O)CCCCCCC)C(=O)N[C@H](C(=O)NCC(N)=O)[C@@H](C)CC [Oct Dap(Alloc) NH2] (Octanoyl-[dN][dY][dW][dOrn][Orn]G[dOrn]W[Dap](Alloc)IG-NH2) | – | 0.4 µg/mL | – | – | – | – |
| CCC(C)CCC(=O)N[C@H](CC(N)=O)C(=O)N[C@H](Cc1ccc(O)cc1)C(=O)N[C@H](Cc1c[nH]c2ccccc12)C(=O)N[C@H](CCCN)C(=O)N[C@@H](CCCN)C(=O)NCC(=O)N[C@H](CCCN)C(=O)N[C@@H](Cc1c[nH]c2ccccc12)C(=O)N[C@@H](CO)C(=O)N[C@H](C(=O)NCC(N)=O)[C@@H](C)CC (stereo partly shown) [Und(9-Ser)-NH2] ({Hexanoyl(4ξ-Me)}-[dN][dY][dW][dOrn][Orn]G[dOrn]WSIG-NH2) | 0.78 µg/mL | 0.78 µg/mL | – | – | – | – |
| CCCCCCCC(=O)N[C@H](CC(N)=O)C(=O)N[C@H](Cc1ccc(O)cc1)C(=O)N[C@H](Cc1c[nH]c2ccccc12)C(=O)N[C@H](CCCN)C(=O)N[C@@H](CCCN)C(=O)NCC(=O)N[C@H](CCCN)C(=O)N[C@@H](Cc1c[nH]c2ccccc12)C(=O)N[C@@H](C)C(=O)N[C@H](C(=O)NCC(=O)O)[C@@H](C)CC [Oct- Ala OH] (Octanoyl-[dN][dY][dW][dOrn][Orn]G[dOrn]WAIG-OH) | – | 25 µg/mL | – | – | – | – |
| C=CCOC(=O)NC[C@H](NC(=O)[C@H](Cc1c[nH]c2ccccc12)NC(=O)[C@@H](CCCN)NC(=O)CNC(=O)[C@H](CCCN)NC(=O)[C@@H](CCCN)NC(=O)[C@@H](Cc1c[nH]c2ccccc12)NC(=O)[C@@H](Cc1ccc(O)cc1)NC(=O)[C@@H](CC(N)=O)NC(=O)CCC(C)CC)C(=O)N[C@H](C(=O)NCC(N)=O)[C@@H](C)CC (stereo partly shown) [MeHex- Dap(Alloc) NH2] ({Hexanoyl(4ξ-Me)}-[dN][dY][dW][dOrn][Orn]G[dOrn]W[Dap](Alloc)IG-NH2) | – | 0.19 µg/mL | – | – | – | – |
| CCC(C)CCC(=O)N[C@H](CC(N)=O)C(=O)N[C@H](Cc1ccc(O)cc1)C(=O)N[C@H](Cc1c[nH]c2ccccc12)C(=O)N[C@H](CCCN)C(=O)N[C@@H](CCCN)C(=O)NCC(=O)N[C@H](CCCN)C(=O)N[C@@H](Cc1c[nH]c2ccccc12)C(=O)N[C@H](C(=O)N[C@H](C(=O)NCC(N)=O)[C@@H](C)CC)[C@@H](C)O (stereo partly shown) [Und(9-Thr)-NH2] ({Hexanoyl(4ξ-Me)}-[dN][dY][dW][dOrn][Orn]G[dOrn]WTIG-NH2) | 1.56 µg/mL | 1.56 µg/mL | – | – | – | – |
| C=CCOC(=O)NC[C@H](NC(=O)[C@H](Cc1c[nH]c2ccccc12)NC(=O)[C@@H](CCCN)NC(=O)CNC(=O)[C@H](CCCN)NC(=O)[C@@H](CCCN)NC(=O)[C@@H](Cc1c[nH]c2ccccc12)NC(=O)[C@@H](Cc1ccc(O)cc1)NC(=O)[C@@H](CC(N)=O)NC(=O)CCC(C)CC)C(=O)N[C@H](C(=O)NCC(=O)O)[C@@H](C)CC (stereo partly shown) [MeHex- Dap(Alloc) OH] ({Hexanoyl(4ξ-Me)}-[dN][dY][dW][dOrn][Orn]G[dOrn]W[Dap](Alloc)IG-OH) | – | 1.6 µg/mL | – | – | – | – |
| C=CCOC(=O)NC[C@H](NC(=O)[C@H](Cc1c[nH]c2ccccc12)NC(=O)[C@@H](CCCN)NC(=O)CNC(=O)[C@H](CCCN)NC(=O)[C@@H](CCCN)NC(=O)[C@@H](Cc1c[nH]c2ccccc12)NC(=O)[C@@H](Cc1ccc(O)cc1)NC(=O)[C@@H](CC(N)=O)NC(=O)CCCCCCC)C(=O)N[C@H](C(=O)NCC(=O)O)[C@@H](C)CC [Oct- Dap(Alloc) OH] (Octanoyl-[dN][dY][dW][dOrn][Orn]G[dOrn]W[Dap](Alloc)IG-OH) | – | 12.5 µg/mL | – | – | – | – |

Next, values leading:

| E. coli MIC (E. coli) | E. coli MIC (E. Coli NCTC 12241) | Minimum inhibitory concentration (MIC) [1] | Minimum inhibitory concentration (MIC) (K. pneumoniae ATCC 11228) | Minimum inhibitory concentration (MIC) (A. baumannii ATCC 17978) | Minimum inhibitory concentration (MIC) (P. aeruginosa PAO1) | SMILES |
| --- | --- | --- | --- | --- | --- | --- |
| – | – | 16 µg/mL (≈ 10.6 µM) | 16 µg/mL (≈ 10.6 µM) | 64 µg/mL (≈ 42.5 µM) | 16 µg/mL (≈ 10.6 µM) | CC[C@H](C)[C@@H]1NC(=O)[C@@H](NC(=O)[C@H](Cc2c[nH]c3ccccc23)NC(=O)[C@@H](CCCN)NC(=O)CNC(=O)[C@H](CCCN)NC(=O)[C@@H](CCCN)NC(=O)[C@@H](Cc2c[nH]c3ccccc23)NC(=O)[C@@H](Cc2ccc(O)cc2)NC(=O)[C@@H](CO)NC(C)=O)[C@@H](C)OC(=O)CNC(=O)CNC(=O)[C@H](CC(N)=O)NC1=O [Compound C2] (Ac-[dS][dY][dW][dOrn][Orn]G[dOrn]WTINGG; ester 9-C) |
| – | – | 8 µg/mL (≈ 5.21 µM) | 8 µg/mL (≈ 5.21 µM) | 4 µg/mL (≈ 2.61 µM) | 8 µg/mL (≈ 5.21 µM) | CCCC(=O)N[C@H](CO)C(=O)N[C@H](Cc1ccc(O)cc1)C(=O)N[C@H](Cc1c[nH]c2ccccc12)C(=O)N[C@H](CCCN)C(=O)N[C@@H](CCCN)C(=O)NCC(=O)N[C@H](CCCN)C(=O)N[C@@H](Cc1c[nH]c2ccccc12)C(=O)N[C@@H]1C(=O)N[C@@H]([C@@H](C)CC)C(=O)N[C@@H](CC(N)=O)C(=O)NCC(=O)NCC(=O)O[C@@H]1C [Compound C4] (Butyryl-[dS][dY][dW][dOrn][Orn]G[dOrn]WTINGG; ester 9-C) |
| – | – | 64 µg/mL (≈ 37.6 µM) | 32 µg/mL (≈ 18.8 µM) | 4 to 8 µg/mL | 64 µg/mL (≈ 37.6 µM) | CCCCCCCCCCCCCCCC(=O)N[C@H](CO)C(=O)N[C@H](Cc1ccc(O)cc1)C(=O)N[C@H](Cc1c[nH]c2ccccc12)C(=O)N[C@H](CCCN)C(=O)N[C@@H](CCCN)C(=O)NCC(=O)N[C@H](CCCN)C(=O)N[C@@H](Cc1c[nH]c2ccccc12)C(=O)N[C@@H]1C(=O)N[C@@H]([C@@H](C)CC)C(=O)N[C@@H](CC(N)=O)C(=O)NCC(=O)NCC(=O)O[C@@H]1C [Compound C16] (Palmitoyl-[dS][dY][dW][dOrn][Orn]G[dOrn]WTINGG; ester 9-C) |
| – | – | 4 µg/mL (≈ 2.43 µM) | 2 to 4 µg/mL | 2 µg/mL (≈ 1.21 µM) | 4 µg/mL (≈ 2.43 µM) | CCCCCCCCCCCC(=O)N[C@H](CO)C(=O)N[C@H](Cc1ccc(O)cc1)C(=O)N[C@H](Cc1c[nH]c2ccccc12)C(=O)N[C@H](CCCN)C(=O)N[C@@H](CCCN)C(=O)NCC(=O)N[C@H](CCCN)C(=O)N[C@@H](Cc1c[nH]c2ccccc12)C(=O)N[C@@H]1C(=O)N[C@@H]([C@@H](C)CC)C(=O)N[C@@H](CC(N)=O)C(=O)NCC(=O)NCC(=O)O[C@@H]1C [Compound C12] (Lauroyl-[dS][dY][dW][dOrn][Orn]G[dOrn]WTINGG; ester 9-C) |
